Test results from ChEMBL document CHEMBL1201862, “PubChem BioAssay data set” (2004).
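In this assay, cells in 96-well plates receive the compound at five concentrations for 48 hours. Endpoints are linearly interpolated between the surrounding concentrations. Abbreviation: GI50, concentration required for 50% inhibition of growth.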 Activity calls are given as the source filed them. No stated cut-off is given here; in the data, active = GI50 up to about 1.1 µM and inactive = higher.

Assays:
Experiment in all cases: growth of human tumour cells (NCI), 48 h
[1] = tested on: M14
[2] = tested on: HCT-15
[3] = tested on: UO-31
[4] = tested on: CAKI-1
[5] = tested on: SNB-75
[6] = tested on: HT-29
[7] = tested on: MDA-MB-231
[8] = tested on: SR
[9] = tested on: EKVX
[10] = tested on: U-251
[11] = tested on: SK-MEL-28
[12] = tested on: 786-0
[13] = tested on: OVCAR-4
[14] = tested on: DU-145
[15] = tested on: A498
[16] = tested on: NCI-H226
[17] = tested on: KM12
[18] = tested on: RXF 393
[19] = tested on: MCF7
[20] = tested on: Hs-578T

Compound	GI50 [1]	GI50 [2] [µM]	GI50 [3]	GI50 [4]	GI50 [5]	GI50 [6]	GI50 [7]	GI50 [8]	GI50 [9]	GI50 [10]	GI50 [11]	GI50 [12]	GI50 [13]	GI50 [14]	GI50 [15]	GI50 [16]	GI50 [17]	GI50 [18]	GI50 [19]	GI50 [20]
C=CC1(O)CCCC=C1COCc1ccccc1 (stereo not given)	> 100 µM (inactive)	65.8	45.1 µM (inactive)	> 100 µM (inactive)	61.4 µM (inactive)	93.5 µM (inactive)	> 100 µM (inactive)	24.8 µM (inactive)	> 100 µM (inactive)	> 100 µM (inactive)	71 µM (inactive)	> 100 µM (inactive)	38.4 µM (inactive)	> 100 µM (inactive)	> 100 µM (inactive)	> 100 µM (inactive)	50.2 µM (inactive)	> 100 µM (inactive)	> 100 µM (inactive)	> 100 µM (inactive)
Cc1cc(Cc2cc(Cc3cc(C)cc(C(C)(C)C)c3O)c(C)cc2C)c(O)c(C(C)(C)C)c1	17.4 µM (inactive)	17.4	18.1 µM (inactive)	19.9 µM (inactive)	11.2 µM (inactive)	18.6 µM (inactive)	> 100 µM (inactive)	29.2 µM (inactive)	16.6 µM (inactive)	> 100 µM (inactive)	18 µM (inactive)	17.1 µM (inactive)	11 µM (inactive)	14.5 µM (inactive)	16.1 µM (inactive)	14.8 µM (inactive)	16.6 µM (inactive)	12 µM (inactive)	12.7 µM (inactive)	17.5 µM (inactive)
COCOC1/C=C/CCCC#C[C@H](C)C(=O)CC1 (stereo not given in full)	8.15 µM (inactive)	8.57	14.8 µM (inactive)	11.5 µM (inactive)	11.1 µM (inactive)	3.69 µM (inactive)	4.25 µM (inactive)	3.46 µM (inactive)	10.4 µM (inactive)	12.2 µM (inactive)	15.2 µM (inactive)	4.21 µM (inactive)	7.83 µM (inactive)	14.6 µM (inactive)	12.1 µM (inactive)	19.6 µM (inactive)	4.85 µM (inactive)	8.41 µM (inactive)	5.55 µM (inactive)	15.5 µM (inactive)
